Activity calls are given as the source filed them. No cut-off for these calls is given here.
What was measured:
Oryctolagus cuniculus [1] = test: Hypotensive effect in normotensive chinchilla rabbits assessed as reduction in intraocular pressure administered once to both eyes and measured every hour for 6 hrs by automatic veterinary tonometer based assay relative to control; format: functional; parameters: concentration or dose not given beside the values
Oryctolagus cuniculus [2] = test: Hypotensive effect in normotensive chinchilla rabbits assessed as maximal effective time administered once to both eyes and measured every hour for 6 hrs by automatic veterinary tonometer based assay; format: functional
Oryctolagus cuniculus [3] = test: Hypotensive effect in normotensive chinchilla rabbits assessed as reduction in intraocular pressure administered once to both eyes and measured after 6 hrs by automatic veterinary tonometer based assay; format: functional, organism-based
Oryctolagus cuniculus [4] = test: Hypotensive effect in normotensive chinchilla rabbits assessed as reduction in intraocular pressure administered once to both eyes and measured after 6 hrs by automatic veterinary tonometer based assay relative to control; format: functional; parameters: scale not given: the % may be the effect or the level left
Oryctolagus cuniculus [5] = test: Hypotensive effect in New Zealand white rabbits assessed as reduction in intraocular pressure at 100 uM administered topically in presence of reserpine and measured every hour for 8 hrs relative to control; format: functional; parameters: scale not given: the % may be the effect or the level left
Oryctolagus cuniculus [6] = test: Hypotensive effect in New Zealand white rabbits assessed as reduction in intraocular pressure at 100 uM administered topically in presence of 6-hydroxydopamine and measured every hour for 8 hrs relative to control; format: functional; parameters: scale not given: the % may be the effect or the level left

SMILES	Activity (Oryctolagus cuniculus [1])	Time (Oryctolagus cuniculus [2])	Activity (Oryctolagus cuniculus [3])	Activity (Oryctolagus cuniculus [4])	Activity (Oryctolagus cuniculus [5])	Activity (Oryctolagus cuniculus [6])
COC(=O)Nc1ccc2c(c1)C(CC(=O)O)C(=O)N2 (stereo unspecified)	12%	3 h	–	–	–	–
CC(C)(C)NC[C@H](O)COc1nsnc1N1CCOCC1 [TIMOLOL]	18%	3 h	inactive	–	–	–
COC(=O)Nc1ccc2c(c1)C(CC#N)C(=O)N2 (stereo unspecified)	24%	2 h	–	17%	–	–
CCOC(=O)Nc1ccc2c(c1)C(CC#N)C(=O)N2 (stereo unspecified)	8%	5 h	–	–	–	–
COc1ccc2[nH]cc(CCNC(C)=O)c2c1 [MELATONIN]	12%	3 h	–	–	5%	5%
COC(=O)Nc1ccc2[nH]cc(CCNC(C)=O)c2c1	–	–	–	–	5%	5%
